Experimental data from patent publication US20230293629A1, “METHODS FOR ATTENUATING RELEASE OF INFLAMMATORY MEDIATORS AND PEPTIDES USEFUL THEREIN” (BIOMARCK PHARMACEUTICALS LTD., priority 2006, published 2023).
Where a SMILES comes first, the peptide text is derived from it. Where no end group is shown, it is not given here. The star is where a group is joined. Myristoyl = CCCCCCCCCCCCCC(=O)*

Tests used:
human neutrophils = assay: PMA-stimulated MPO release from isolated human neutrophils (TMB assay); type: cell-based; settings: for increase of human neutrophil MPO release versus control level: 100 nM PMA; for % Inhibition MPO: 100 μM test peptide, two hour incubation with 100 nM PMA, human neutrophils; for MPO activity relative to control as 100%: 30 min after 100 nM PMA, PMA control reference about 275%
Excerpt: Human neutrophil isolation—These studies were approved by the human studies Institutional Review Board (IRB). Human neutrophils were isolated as previously described (see Takashi S, OkuboY, Horie S. Contribution of CD54 to human eosinophil and neutrophil superoxide production. J Appl Physiol 2001; 91:613-622) with slight modifications. Briefly, heparinized venous blood was obtained from normal healthy volunteers, diluted with RPMI-1640 (Cellgro; Mediatech, Inc., Herndon, VA) at a ratio of 1:1, layered onto a Histopaque (density, 1.077 g/ml; Sigma-Aldrich Co., St. Louis, MO) and centrifuged at 400 g for 20 min at 4° C. The supernatant and mononuclear cells at the interface were carefully removed, and erythrocytes in the sediment were lysed in chilled distilled water. Isolated granulocytes were washed twice with Hanks' balanced salts solution (HBSS) and resuspended in HBSS on ice.
Measurement of released neutrophil MPO activity—For measurement of MPO release, purified human neutrophils suspended in HBSS were aliquoted at 4×10^6 cells/ml in 15 ml tubes and preincubated with either 50 or 100 μM of MANS, RNS, or one of the peptides of invention for 10 min at 37° C. The cells then were stimulated with 100 nM phorbol 12-myristate 13-acetate (PMA) for up to 3 hrs. A control reference (PMA control reference) was established using purified human neutrophils suspended in HBSS aliquoted at 4×10^6 cells/ml in 15 mL tubes and stimulated with 100 nM phorbol 12-myristate 13-acetate (PMA) in the absence of a test peptide for the same time periods. The reaction was terminated by placing the tubes on ice and centrifugation at 400 g for 5 min at 4° C.
MPO activity in the cell supernatant was assayed using tetramethylbenzidine (TMB) based on a previously established technique (Abdel-Latif D, Steward M, Macdonald D L, Francis G A., Dinauer M C, Lacy P. Rac2 is critical for neutrophil primary granule exocytosis. Blood 2004; 104:832-839). Briefly, 100 μL of TMB substrate solution was added to 50 μL of cell supernatants or standard human MPO (EMD Biosciences, Inc., San Diego, CA) in a 96-well microplate followed by incubation at room temperature for 15 min. The reaction was terminated by addition of 50 μL of 1M […] and absorbance was read at 450 nm in a spectrophotometric microplate reader (VERSA max, Molecular Devices, Sunnyvale, CA).
The data presented in the table below represents 100 μM concentration of test peptides and a two hour incubation with 100 nM PMA.

HL-60 clone 15 cells = assay: PMA-stimulated EPO release from HL-60 clone 15 cells; type: cell-based, human; settings: for % Inhibition EPO: 50 μM test peptide, two hour incubation with 100 nM PMA, HL-60 clone 15 cells
How it was run: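 HL-60 clone 15 cells were differentiated to an eosinophil-like state with 0.5 mM butyric acid for 5 days. At 2.5×10^6 cells/ml in phenol red-free RPMI, they were preincubated 10 min at 37 °C with peptide, then stimulated with PMA for up to 2 h. Released EPO was measured by TMB oxidation (A450) and given as percentage of total content in triton X-100 lysates.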

[1] = any of the time points or concentrations tested

With CCCCCCCCCCCCCC(=O)O[C@@H]1[C@@H](C)[C@@]2(O)[C@@H](C=C(CO)C[C@]3(O)C(=O)C(C)=C[C@@H]23)[C@@H]2C(C)(C)[C@]12OC(C)=O [PMA, phorbol 12-myristate 13-acetate] the “increase of human neutrophil MPO release versus control level” value (human neutrophils; 30 min) was “approximately threefold” and the “increase of human neutrophil MPO release versus control level” value (human neutrophils; after 3 hrs) was 5-6 fold.

With Ac-GAQFSKTAAKGEAAAERPGEAAVA the “% Inhibition EPO” value (HL-60 clone 15 cells) was 33.7%.

For CCCCCCCCCCCCCC(=O)NCC(=O)N[C@H](C(=O)N[C@@H](C)C(=O)N1CCC[C@H]1C(=O)N[C@@H](C)C(=O)N[C@@H](C)C(=O)N[C@@H](CCC(=O)O)C(=O)NCC(=O)N[C@@H](C)C(=O)NCC(=O)N[C@@H](C)C(=O)N[C@@H](CCC(=O)O)C(=O)N[C@H](C(=O)N[C@@H](CCCCN)C(=O)N[C@@H](CCCNC(=N)N)C(=O)N[C@@H](C)C(=O)N[C@@H](CO)C(=O)N[C@@H](C)C(=O)N[C@@H](CCC(=O)O)C(=O)N[C@@H](C)C(=O)N[C@@H](CCCCN)C(=O)N[C@@H](CCC(N)=O)C(=O)N[C@@H](C)C(=O)N[C@@H](Cc1ccccc1)C(=O)O)C(C)C)[C@@H](C)O [RNS, reference compound] (Myristoyl-GTAPAAEGAGAEVKRASAEAKQAF-OH; C-terminus assumed), the “% Inhibition MPO” value (human neutrophils) was 0%, the “effect on PMA-induced MPO release” value (human neutrophils; [1]) was “did not affect” and the “% Inhibition EPO” value (HL-60 clone 15 cells) was 0%. For the same molecule, the “effect on PMA-enhanced EPO release” value (HL-60 clone 15 cells; [1]) was “did not affect”.

For Ac-GAQFSKTAAK [Ac-GAQFSKTAAK], the “% Inhibition MPO” value (human neutrophils) was 25.3% and the “% Inhibition EPO” value (HL-60 clone 15 cells) was 35.7%.

With CCCCCCCCCCCCCC(=O)NCC(=O)N[C@@H](C)C(=O)N[C@@H](CCC(N)=O)C(=O)N[C@@H](Cc1ccccc1)C(=O)N[C@@H](CO)C(=O)N[C@@H](CCCCN)C(=O)N[C@H](C(=O)N[C@@H](C)C(=O)N[C@@H](C)C(=O)N[C@@H](CCCCN)C(=O)NCC(=O)N[C@@H](CCC(=O)O)C(=O)N[C@@H](C)C(=O)N[C@@H](C)C(=O)N[C@@H](C)C(=O)N[C@@H](CCC(=O)O)C(=O)N[C@@H](CCCNC(=N)N)C(=O)N1CCC[C@H]1C(=O)NCC(=O)N[C@@H](CCC(=O)O)C(=O)N[C@@H](C)C(=O)N[C@@H](C)C(=O)N[C@H](C(=O)N[C@@H](C)C(=O)O)C(C)C)[C@@H](C)O [MANS] (Myristoyl-GAQFSKTAAKGEAAAERPGEAAVA-OH; C-terminus assumed) the “MPO activity relative to control as 100%” value (human neutrophils; 50 μM) was “about 275%”, the “reduction in MPO release versus the PMA control reference” value (human neutrophils; 50 μM, 1 hr) was “about 15%” and the “MPO activity % of control” value (human neutrophils; 50 μM, 1 hr, PMA control reference about 340%) was “about 290%”. The “reduction of MPO release versus the PMA control reference” value (human neutrophils; 50 μM, 2 hours) was “approximately 30%”, the “MPO activity % of control” value (human neutrophils; 50 μM, 2 hours, PMA control reference about 540%) was “about 375%” and the “reduction of MPO release versus the PMA control reference” value (human neutrophils; 50 μM, 3 hours) was “approximately 33%”. The “MPO activity % of control” value (human neutrophils; 50 μM, 3 hours, PMA control reference about 560%) was “about 375%”, the “% Inhibition MPO” value (human neutrophils) was 31.2% and the “MPO activity relative to control as 100%” value (human neutrophils; 100 μM) was “about 305%”. For the same molecule, the “reduction in MPO release versus the PMA control reference” value (human neutrophils; 100 μM, 1 hr) was “about 25%”, the “MPO activity % of control” value (human neutrophils; 100 μM, 1 hr, PMA control reference about 340%) was “about 260%” and the “reduction of MPO release versus the PMA control reference” value (human neutrophils; 100 μM, 2 hours) was “approximately 45%”. For the same molecule, the “MPO activity % of control” value (human neutrophils; 100 μM, 2 hours, PMA control reference about 540%) was “about 295%”, the “reduction of MPO release versus the PMA control reference” value (human neutrophils; 100 μM, 3 hours) was “approximately 40%” and the “MPO activity % of control” value (human neutrophils; 100 μM, 3 hours, PMA control reference about 560%) was “about 320%”. For the same molecule, the “effect on PMA-induced MPO release” value (human neutrophils; 50 and 100 μM, 30 min) was “no detected effect”, the “reduction in EPO activity relative to the PMA control reference” value (HL-60 clone 15 cells; 10 μM, 1 hour) was “about 15%” and the “EPO activity relative to control as 100%” value (HL-60 clone 15 cells; 10 μM, 1 hour, PMA control reference about 110%) was “about 95%”. The “reduction in EPO activity relative to the PMA control reference” value (HL-60 clone 15 cells; 10 μM, 2 hour) was “about 10%”, the “EPO activity relative to control as 100%” value (HL-60 clone 15 cells; 10 μM, 2 hour, PMA control reference about 145%) was “about 130%” and the “% Inhibition EPO” value (HL-60 clone 15 cells) was 46.1%. The “reduction in EPO activity relative to the PMA control reference” value (HL-60 clone 15 cells; 50 μM, 1 hour) was “about 30%”, the “EPO activity relative to control as 100%” value (HL-60 clone 15 cells; 50 μM, 1 hour, PMA control reference about 110%) was “about 78%” and the “reduction in EPO activity relative to the PMA control reference” value (HL-60 clone 15 cells; 50 μM, 2 hour) was “about 50%”. For the same molecule, the “EPO activity relative to control as 100%” value (HL-60 clone 15 cells; 50 μM, 2 hour, PMA control reference about 145%) was “about 70%”, the “reduction in EPO activity relative to the PMA control reference” value (HL-60 clone 15 cells; 100 μM, 1 hour) was “about 40%” and the “EPO activity relative to control as 100%” value (HL-60 clone 15 cells; 100 μM, 1 hour, PMA control reference about 110%) was “about 65%”. The “reduction in EPO activity relative to the PMA control reference” value (HL-60 clone 15 cells; 100 μM, 2 hour) was “about 50%” and the “EPO activity relative to control as 100%” value (HL-60 clone 15 cells; 100 μM, 2 hour, PMA control reference about 145%) was “about 72%”.
